Measurements as given in patent publication US20230107642A1 (Erasca, Inc., priority 2020, published 2023).

Molecular target: T1, Cys12 of the KRAS 4B G12C protein (Homo sapiens, UniProt P01116, G12C)
T1 construct: This protein contained 188 amino acids in total, including an N-terminal 6-Histidine tag; made in house; host or cells: E. coli BL21
Experiment: In vitro covalent adduct formation (CAF) assay, LC-MS intact mass
Assay type: binding
Conditions: for % CAF 10 uM @ 60 min: 10 uM compound
Procedure, shortened: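 Percent covalent modification from intact-mass LC-MS, by relative free versus adducted protein (adducts within 1 Da of expected mass). Reaction: 10 μM compound with 5 μM E. coli-expressed, GDP-exchanged KRAS 4B G12C in TBS pH 7.4, 4% DMSO, 1 h at 22° C.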

| SMILES | % CAF 10 uM @ 60 min (60 min) | other results |
| --- | --- | --- |
| C=CC(=O)N1[C@H](C)CN(c2nc(=O)n3c4c(c(-c5ccc(F)cc5F)c(C(F)(F)F)cc24)SCC2(CN(CC)C2)C3)C[C@@H]1C [Example 1104, 8-((3S,5R)-4-acryloyl-3,5-dimethylpiperazin-1-yl)-11-(2,4-difluorophenyl)-1′-ethyl-10-(trifluoromethyl)-2H-spiro[[1,4]thiazepino[2,3,4-ij]quinazoline-3,3′-azetidin]-6(4H)-one] | – | % CAF 10 uM @ 60 min (60 min incubation): 97.2% |
| C=CC(=O)N1[C@H](C)CN(c2nc(=O)n3c4c(c(-c5ccc(F)c(Cl)c5)c(C(F)(F)F)cc24)SC[C@@H]3CN2CCN(C3CC3)CC2)C[C@@H]1C [Example 1372, (S)-7-((3S,5R)-4-acryloyl-3,5-dimethylpiperazin-1-yl)-10-(3-chloro-4-fluorophenyl)-3-((4-cyclopropylpiperazin-1-yl)methyl)-9-(trifluoromethyl)-2,3-dihydro-5H-[1,4]thiazino[2,3,4-ij]quinazolin-5-one] | 77.2% | – |
| C=CC(=O)N1[C@H](C)CN(c2nc(=O)n3c4c(c(-c5cccc6cnn(C)c56)c(C(F)(F)F)cc24)SC[C@@H]3CN2CCN(C3CC3)CC2)C[C@@H]1C (atropisomer, axis not shown) [Example 1411, (3S,10R)-7-((3S,5R)-4-acryloyl-3,5-dimethylpiperazin-1-yl)-3-((4-cyclopropylpiperazin-1-yl)methyl)-10-(1-methyl-1H-indazol-7-yl)-9-(trifluoromethyl)-2,3-dihydro-5H-[1,4]thiazino[2,3,4-ij]quinazolin-5-one] | 0% | – |
| C=CC(=O)N1CCN(c2nc(=O)n3c4c(c(-c5ccc(F)c(Cl)c5)c(C(F)(F)F)cc24)SC[C@H](OC)C3)CC1 [Example 1041, (R)-8-(4-acryloylpiperazin-1-yl)-11-(3-chloro-4-fluorophenyl)-3-methoxy-10-(trifluoromethyl)-3,4-dihydro-2H,6H-[1,4]thiazepino[2,3,4-ij]quinazolin-6-one] | – | CAF (% binding after 60 min): 97% |
| C=CC(=O)N1CCN(c2nc(=O)n3c4c(c(-c5cccc6cnn(C)c56)c(C(F)(F)F)cc24)SC[C@@H]3COC)CC1 (atropisomer, axis not shown) [Example 1119, (3S,10S)-7-(4-acryloylpiperazin-1-yl)-3-(methoxymethyl)-10-(1-methyl-1H-indazol-7-yl)-9-(trifluoromethyl)-2,3-dihydro-5H-[1,4]thiazino[2,3,4-ij]quinazolin-5-one] | – | % CAF 10 uM @ 60 min (60 min incubation): 99.4% |
| C=CC(=O)N1CCN(c2nc(=O)n3c4c(c(-c5ccc(F)c(Cl)c5)c(C(F)(F)F)cc24)SC[C@H](OC)C3)CC1 [Example 1043, (R)-8-(4-acryloylpiperazin-1-yl)-11-(3-chloro-4-fluorophenyl)-3-methoxy-10-(trifluoromethyl)-3,4-dihydro-2H,6H-[1,4]thiazepino[2,3,4-ij]quinazolin-6-one] | – | CAF (% binding after 60 min): 97% |
| C=CC(=O)N1CCN(c2nc(=O)n3c4c(c(-c5cc(Cl)c(F)cc5F)c(C(F)(F)F)cc24)SC[C@@H]3CN2C[C@@H]3C[C@H]2CO3)CC1 (atropisomer, axis not shown) [Example 1342, (3S,10S)-3-(((1S,4S)-2-oxa-5-azabicyclo[2.2.1]heptan-5-yl)methyl)-7-(4-acryloylpiperazin-1-yl)-10-(5-chloro-2,4-difluorophenyl)-9-(trifluoromethyl)-2,3-dihydro-5H-[1,4]thiazino[2,3,4-ij]quinazolin-5-one] | 44.1% | – |
| C=CC(=O)N1CCN(c2nc(=O)n3c4c(c(-c5ccc(F)cc5F)c(C(F)(F)F)cc24)SCC2(COC2)C3)CC1 (atropisomer, axis not shown) [Example 1127, (R)-8′-(4-acryloylpiperazin-1-yl)-11′-(2,4-difluorophenyl)-10′-(trifluoromethyl)-2′H,4′H,6′H-spiro[oxetane-3,3′-[1,4]thiazepino [2,3,4-ij]quinazolin]-6′-one] | – | % CAF 10 uM @ 60 min (60 min incubation): 95.3% |
| C=C(F)C(=O)N1[C@H](C)CN(c2nc(=O)n3c4c(c(-c5ccc(F)cc5)c(C(F)(F)F)cc24)SC[C@@H](OC)C3)C[C@@H]1C [Example 1222, (S)-8-((3S,5R)-4-(2-Fluoroacryloyl)-3,5-dimethylpiperazin-1-yl)-11-(4-fluorophenyl)-3-methoxy-10-(trifluoromethyl)-3,4-dihydro-2H,6H-[1,4]thiazepino[2,3,4-ij]quinazolin-6-one] | – | CAF (% after 1 hour) (10 μM compound, after 1 hour): 59% |

Continued, in another order:

| % CAF 10 uM @ 60 min (60 min) | SMILES | other results |
| --- | --- | --- |
| 95% | C=CC(=O)N1C[C@H](C)N(c2nc(=O)n3c4c(c(-c5cc(Br)c(F)cc5F)c(C(F)(F)F)cc24)SCC2(COC2)C3)C[C@H]1C (atropisomer, axis not shown) [Example 1445, (R)-8′-((2S,5R)-4-Acryloyl-2,5-dimethylpiperazin-1-yl)-11′-(5-bromo-2,4-difluorophenyl)-10′-(trifluoromethyl)-2′H,4′H,6′H-spiro[oxetane-3,3′-[1,4]thiazepino[2,3,4-ij]quinazolin]-6′-one] | – |
| 74.6% | C=CC(=O)N1[C@H](C)CN(c2nc(=O)n3c4c(c(-c5ccc(F)c(Cl)c5)c(C(F)(F)F)cc24)SC[C@@H]3COCOC)C[C@@H]1C [Example 1359, (S)-7-((3S,5R)-4-acryloyl-3,5-dimethylpiperazin-1-yl)-10-(3-chloro-4-fluorophenyl)-3-((methoxymethoxy)methyl)-9-(trifluoromethyl)-2,3-dihydro-5H-[1,4]thiazino[2,3,4-ij]quinazolin-5-one] | – |
| 82.3% | C=CC(=O)N1C[C@H](C)N(c2nc(=O)n3c4c(c(-c5ccc(F)cc5F)c(C(F)(F)F)cc24)SC[C@@H]3COCOC)C[C@H]1C (atropisomer, axis not shown) [Example 1326, (3S,10S)-7-((2S,5R)-4-acryloyl-3,5-dimethylpiperazin-1-yl)-10-(2,4-difluorophenyl)-3-((methoxymethoxy)methyl)-9-(trifluoromethyl)-2,3-dihydro-5H-[1,4]thiazino[2,3,4-ij]quinazolin-5-one] | – |
| 76% | C=CC(=O)N1C[C@H](C)N(c2nc(=O)n3c4c(c(-c5cc(C(OC)OC)c(F)cc5F)c(C(F)(F)F)cc24)SCC2(COC2)C3)C[C@H]1C [Example 1426, 8′-((2S,5R)-4-acryloyl-2,5-dimethylpiperazin-1-yl)-11′-(5-(dimethoxymethyl)-2,4-difluorophenyl)-10′-(trifluoromethyl)-2′H,4′H,6′H-spiro[oxetane-3,3′-[1,4]thiazepino[2,3,4-ij]quinazolin]-6′-one] | – |
| 96.4% | C=CC(=O)N1C[C@H](C)N(c2nc(=O)n3c4c(c(-c5cc(Cl)c(F)cc5F)c(C(F)(F)F)cc24)SC[C@@H]3CN2CCC3(CC2)COC3)C[C@H]1C (atropisomer, axis not shown) [Example 1313, (3S,10R)-3-((2-oxa-7-azaspiro[3.5]nonan-7-yl)methyl)-7-((2S,5R)-4-acryloyl-2,5-dimethylpiperazin-1-yl)-10-(5-chloro-2,4-difluorophenyl)-9-(trifluoromethyl)-2,3-dihydro-5H-[1,4]thiazino[2,3,4-ij]quinazolin-5-one] | – |
| 96.1% | C=CC(=O)N1[C@H](C)CN(c2nc(=O)n3c4c(c(-c5ccc(F)cc5)c(C(F)(F)F)cc24)SC[C@@H]3CN2C[C@@H]3C[C@H]2CO3)C[C@@H]1C [Example 1352, (S)-3-(((1S,4S)-2-oxa-5-azabicyclo[2.2.1]heptan-5-yl)methyl)-7-((3S,5R)-4-acryloyl-3,5-dimethylpiperazin-1-yl)-10-(4-fluorophenyl)-9-(trifluoromethyl)-2,3-dihydro-5H-[1,4]thiazino[2,3,4-ij]quinazolin-5-one] | – |
